Target: T1, rat liver microsomal HMGCoA reductase (Rattus norvegicus, UniProt P51639)
T1 construct: rat liver microsomal HMGCoA reductase; from tissue; host or cells: rat liver microsomes
T1 sequence (P51639 1-887): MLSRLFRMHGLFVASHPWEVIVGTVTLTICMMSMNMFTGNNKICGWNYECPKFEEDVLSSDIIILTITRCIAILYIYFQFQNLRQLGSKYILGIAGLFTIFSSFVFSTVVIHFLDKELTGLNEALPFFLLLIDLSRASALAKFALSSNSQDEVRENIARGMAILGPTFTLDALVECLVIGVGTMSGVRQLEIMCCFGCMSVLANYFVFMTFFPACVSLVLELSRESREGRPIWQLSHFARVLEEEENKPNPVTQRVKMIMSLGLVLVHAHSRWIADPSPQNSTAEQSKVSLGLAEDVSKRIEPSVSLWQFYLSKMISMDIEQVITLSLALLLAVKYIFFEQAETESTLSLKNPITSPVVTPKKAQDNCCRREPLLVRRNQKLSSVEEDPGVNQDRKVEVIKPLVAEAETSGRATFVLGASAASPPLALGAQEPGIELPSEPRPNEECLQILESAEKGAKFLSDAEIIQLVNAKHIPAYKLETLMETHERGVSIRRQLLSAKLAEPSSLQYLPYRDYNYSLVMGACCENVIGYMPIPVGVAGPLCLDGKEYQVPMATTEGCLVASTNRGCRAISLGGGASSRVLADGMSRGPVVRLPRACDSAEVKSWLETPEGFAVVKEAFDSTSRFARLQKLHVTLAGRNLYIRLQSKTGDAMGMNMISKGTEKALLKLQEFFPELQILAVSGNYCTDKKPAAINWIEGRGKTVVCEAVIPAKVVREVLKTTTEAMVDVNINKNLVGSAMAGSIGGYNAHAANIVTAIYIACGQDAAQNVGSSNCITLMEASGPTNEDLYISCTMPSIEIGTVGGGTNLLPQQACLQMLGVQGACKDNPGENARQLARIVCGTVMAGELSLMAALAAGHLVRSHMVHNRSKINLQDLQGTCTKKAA
Test: in vitro inhibition of rat liver microsomal HMGCoA reductase
Type: biochemical
Settings: read-out: % inhibition (HMG CoA reductase); for inhibition at 50 µM: at 5.0×10^-5 M
Method: The in vitro inhibitory activity of the present compounds is evaluated using rat liver microsomal HMGCoA reductase as described by Edwards, et al. J. Biol. Chem. 249, 2891 (1974). The IC50 is defined as the concentration required to inhibit the enzyme by 50% of control.
HMG derivaties are added to a preincubation mixture consisting of 0.1 M K PO4, PH7.2, 0.02 M glucose-6-PO4, 2.5 mM NADP, 0.7 units of glucose-6-PO4 dehydrogenase, 5 mM dithiothreitol, 50 mM mevalonic acid and approximately 50 μg of microsomal protein. Triplicate samples are preincubated for 15 min. at 37° C. in a volume of 1 ml. Incubation is started with 40 μM 14C-HMGCoA (0.1 ml) run for 15 min. at 37° C. and stopped with 5 N HCl (0.1 ml). Assay tubes are allowed to set for at least 30 min., then approximately 50,000 dpm of ^3 H-mevalonic acid are added to provide for extraction efficiency. Mevalonic acid is extracted with ether and the % ^14 C-HMGCoA incorporation determined for concurrent control and test reaction systems. Testing is done (first) with a range finding assay followed by a 4 or 5 point assay to find the IC50 value.

| inhibition at 50 µM | inhibition at 75 µM (at 7.5×10^-5 M) | SMILES |
| --- | --- | --- |
| 57% |  | CC(CCCCCCCCC1CC(O)(CC(=O)O)CC(=O)O1)c1ccccc1 (stereo not drawn) [Example 2, 3-Carboxymethyl-3,5-dihydroxy-14-phenylpentadecanoic acid 1,5-Lactone] |
|  | 49% | CC(CCCCCCCCC1CC(O)(CC(=O)O)CC(=O)O1)C1CCCCC1 (stereo not drawn) [Example 3, 3-Carboxymethyl-14-cyclohexyl-3,5-dihydroxypentadecanoic acid 1,5-lactone] |
| 52% |  | CCCCCCCCCCCCCC1CC(O)(CC(=O)O)CC(=O)O1 (stereo not drawn) [Example 1, 3-Carboxymethyl-3,5-Dihydroxyoctadecanoic Acid-1,5-Lactone] |

From patent publication US4622338A, “Substituted glutaric acid lactones in the treatment of hyperlipidemia” (G. D. Searle & Co., priority 1985, dated 1986)
